Earlier results in US20090263481A1, “LEVETIRACETAM FORMULATIONS” (priority 2008, published 2009).
Like-named read-outs stand apart in the source and are kept apart here.

Assays:
[1] = not given; remark: listed apart in the source

solubility (descriptive) (acetonitrile): sparingly soluble
solubility (descriptive) (chloroform): freely soluble
solubility (descriptive) (ethanol): soluble
solubility (descriptive) (methanol): freely soluble
solubility (descriptive) (n-hexane): practically insoluble
aqueous solubility (water): 104 g/100 mL
solubility (descriptive) (water): very soluble
dose range over which pharmacokinetics are linear ([1]; in vivo): 500 to 5000 mg
absorption after oral administration (descriptive) ([1]; oral administration): rapidly and almost completely absorbed
time of peak plasma concentrations ([1]; oral administration to fasted subjects): one
decrease of Cmax by food ([1]; oral, with food): 20%
time to steady state ([1]; twice-daily dosing): 2 days
bound to plasma proteins (plasma proteins): less than 10%
SMILES: CC[C@@H](C(N)=O)N1CCCC1=O [Levetiracetam, (−)-(S)-α-ethyl-2-oxo-1-pyrrolidine acetamide]
